ChEMBL document CHEMBL1127660, “Isolation, structural determination, and biological activity of 6 alpha-hydroxytaxol, the principal human metabolite of taxol” (J Med Chem, 1994)

Tests used:
[1] = system: MOLT-4; test: The compound was tested for inhibition concentration against MOLT-4 cell line; assay type: functional, cell-based; conditions: Homo sapiens
[2] = system: U-937; test: The compound was tested for inhibition concentration against U-937 cell line; assay type: functional, cell-based; conditions: Homo sapiens

Q: Which IC50 [1] does the source give for `CC(=O)O[C@H]1C(=O)[C@@]2(C)[C@H]([C@H](OC(=O)c3ccccc3)[C@]3(O)C[C@H](OC(=O)[C@H](O)[C@@H](NC(=O)c4ccccc4)c4ccccc4)C(C)=C1C3(C)C)[C@]1(OC(C)=O)CO[C@@H]1C[C@@H]2O` [PACLITAXEL] here?
A: 1.6 nM

Q: What about the IC50 [2] of the same molecule?
A: 1 nM
